Test results from patent US5089476A, “Glutamic acid derivatives” (Roussel Uclaf, priority 1987, dated 1992).

Experiments:
Type in all cases: cell-based, human
[1] = tested on: tumor necrosis factor (TNF) production by monocytes; test: Tumor Necrosis Factor (TNF) test on monocyte culture supernatants (toxicity on L-929 target cells); details: toxicity on L-929 cells with actinomycin D
Procedure: (§1) The mononuclear cells of the circulating blood of normal donors were separated by the classical technique described by Boyum using a Ficoll gradient. After being washed, the mononuclear cells were incubated at 37° C. for 1 hour in the proportion of 5×10^6 monocytes (NSE^+ cells) per ml of culture medium, 5 ml per culture bottle. The culture medium used in this experiment was composed of RPMI 1640 to which antibiotics and HEPES buffer had been added. After one hour, the non-adherent cells were removed by washing the bottles with medium previously brought to 37 C, and the adherent cells, composed essentially of monocytes (>90%), were cultured again in the presence of different amounts of test products in a PBS medium (Dulbecco) without Ca^2+ or Mg^2+. Culturing was continued for 24 or 48 hours and the cell supernatants were then withdrawn, centrifuged, aliquoted and stored either at -80° C. or at -20° C. The culture supernatants were replaced in the bottles by the same amount of pyrogen-free distilled water to Lyse the cells. The Lysate was recovered, aliquoted and also stored at -20° C. […]
The technique was sensitized by adding actinomycin D to the test. […] After 24 hours of culturing, the number of unlysed viable cells was measured by staining the plates with crystal violet and measuring the optical density of different wells on a multiscan reader.

[2] = tested on: interleukin-1 (IL-1) production by monocytes; test: Interleukin-1 (IL-1) test on monocyte culture supernatants (mouse thymocyte co-mitogenic bioassay); details: thymidine incorporation by C3H/HeJ mouse thymocytes with PHA
Procedure: as §1, with “cells.” for “cells. The Lysate was recovered, aliquoted and also stored at -20° C.”
This test was first described by Gery et al in 1972 [Gery et al, 1972 Potentiation of the T Lymphocyte response to mitogens. […] The results were expressed as the difference between the pulses per minute incorporated by the cultures in the presence of supernatants and the pulses per minute incorporated by the control cultures.

monocytes = test: Stimulation of monocytic cells with an immunostimulant; details: for stimulation of monocytes: adherent blood monocytes of normal donors, cultured 24 or 48 hours with test product; for synergy with interferon-γ: in the presence of interferon-γ 10^3 U/ml, a dose at which IFN-γ alone was inactive
Procedure: The mononuclear cells of the circulating blood of normal donors were separated by the classical technique described by Boyum using a Ficoll gradient. After being washed, the mononuclear cells were incubated at 37° C. for 1 hour in the proportion of 5×10^6 monocytes (NSE^+ cells) per ml of culture medium, 5 ml per culture bottle. The culture medium used in this experiment was composed of RPMI 1640 to which antibiotics and HEPES buffer had been added. After one hour, the non-adherent cells were removed by washing the bottles with medium previously brought to 37 C, and the adherent cells, composed essentially of monocytes (>90%), were cultured again in the presence of different amounts of test products in a PBS medium (Dulbecco) without Ca^2+ or Mg^2+. Culturing was continued for 24 or 48 hours and the cell supernatants were then withdrawn, centrifuged, aliquoted and stored either at -80° C. or at -20° C. The culture supernatants were replaced in the bottles by the same amount of pyrogen-free distilled water to Lyse the cells. The Lysate was recovered, aliquoted and also stored at -20° C.

Molecule	TNF production by monocytes [1]	IL-1 production by monocytes [2]	stimulation of monocytes (monocytes)	synergy with interferon-γ (monocytes)	activity of IFN-γ alone (monocytes; interferon-γ 10^3 U/ml alone)
C=C(CC(N)C(=O)O)CC(NC(=O)CC[C@@H](N)C(=O)O)C(=O)O (stereo partly drawn) [Example 1, 2-amino-6-(γ-D-glutamylamino)-4-methylene-heptanedioic acid]	stimulated	stimulated	stimulated monocytes	synergy	
C=C(CC(NC(=O)CC[C@@H](N)C(=O)O)C(=O)O)CC(NC(=O)[C@H](C)N)C(=O)O (stereo partly drawn) [Example 2, 2-(L-Alanylamino)-6-(γ-D-glutamylamino)-4-methyleneheptanedioic acid]	stimulated	stimulated	stimulated monocytes	synergy	
IFN-γ: interferon-γ (10^3 U/ml) added to monocyte cultures to test synergy (protein, UniProt P01579 24-161, looked up) Interferon gamma: QDPYVKEAENLKKYFNAGHSDVADNGTLFLGILKNWKEESDRKIMQSQIVSFYFKLFKNFKDDQSIQKSVETIKEDMNVKFFNSNKKKRDDFEKLTNYSVTDLNVQRKAIHELIQVMAELSPAAKTGKRKRSQMLFRG					inactive
